ChEMBL document CHEMBL1201862, “PubChem BioAssay data set” (2004)
The source made the active and inactive calls.

Columns and labels:
[1] = P. falciparum Dd2 blood-stage growth inhibition, dose response, SYBR Green fluorescence, erythrocytes, dry powder, set 2 (AID 1159574); type: functional, cell-based
[2] = target: Mitogen-activated protein kinase 10 (Homo sapiens, UniProt P53779); experiment: Dose response biochemical screening assay for inhibitors of c-Jun N-Terminal Kinase 3 (JNK3). [Related pubchem assays: 746 ]
Chain of Mitogen-activated protein kinase 10 (P53779 whole entry): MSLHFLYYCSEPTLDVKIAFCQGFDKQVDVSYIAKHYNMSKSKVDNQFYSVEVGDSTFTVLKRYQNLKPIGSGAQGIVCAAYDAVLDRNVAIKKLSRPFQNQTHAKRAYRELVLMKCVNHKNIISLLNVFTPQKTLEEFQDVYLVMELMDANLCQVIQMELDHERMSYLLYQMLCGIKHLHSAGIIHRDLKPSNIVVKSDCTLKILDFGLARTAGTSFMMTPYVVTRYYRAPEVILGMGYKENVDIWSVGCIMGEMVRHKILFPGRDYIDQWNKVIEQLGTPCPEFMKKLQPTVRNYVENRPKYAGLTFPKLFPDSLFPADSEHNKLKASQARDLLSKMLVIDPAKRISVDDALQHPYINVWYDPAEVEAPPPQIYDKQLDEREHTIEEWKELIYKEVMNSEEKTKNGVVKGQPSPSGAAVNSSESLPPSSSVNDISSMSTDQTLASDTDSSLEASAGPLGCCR

[3] = target: Bifunctional protein GlmU (Mycobacterium tuberculosis, UniProt P9WMN3); experiment: Inhibitors of Mycobacterial Glucosamine-1-phosphate acetyl transferase (GlmU). Secondary screen.; parameters: species or system Mycobacterium tuberculosis H37Rv
Chain of Bifunctional protein GlmU (P9WMN3 whole entry, the tested form may be a part): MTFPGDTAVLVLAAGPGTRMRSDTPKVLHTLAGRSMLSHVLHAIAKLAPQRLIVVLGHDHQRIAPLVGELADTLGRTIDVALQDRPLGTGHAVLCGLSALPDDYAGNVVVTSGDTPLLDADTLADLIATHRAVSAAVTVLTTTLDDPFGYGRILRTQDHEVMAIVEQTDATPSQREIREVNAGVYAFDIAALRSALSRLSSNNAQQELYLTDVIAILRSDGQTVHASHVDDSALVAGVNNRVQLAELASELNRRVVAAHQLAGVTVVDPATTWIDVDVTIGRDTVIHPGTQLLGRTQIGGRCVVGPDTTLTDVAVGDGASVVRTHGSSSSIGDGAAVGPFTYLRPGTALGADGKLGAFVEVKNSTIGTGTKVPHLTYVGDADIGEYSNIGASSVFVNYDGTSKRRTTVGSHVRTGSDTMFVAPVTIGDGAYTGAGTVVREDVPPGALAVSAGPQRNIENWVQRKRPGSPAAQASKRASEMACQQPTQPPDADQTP

[4] = target: T1, Carboxy-terminal domain RNA polymerase II polypeptide A small phosphatase 1 (Homo sapiens, UniProt Q9GZU7); experiment: inhibitors of CTDSP1, concentration-response testing, biochemical assay, absorbance-based, actives from ultra-high-throughput screening (AID 540297); type: functional
T1 sequence (Q9GZU7 whole entry): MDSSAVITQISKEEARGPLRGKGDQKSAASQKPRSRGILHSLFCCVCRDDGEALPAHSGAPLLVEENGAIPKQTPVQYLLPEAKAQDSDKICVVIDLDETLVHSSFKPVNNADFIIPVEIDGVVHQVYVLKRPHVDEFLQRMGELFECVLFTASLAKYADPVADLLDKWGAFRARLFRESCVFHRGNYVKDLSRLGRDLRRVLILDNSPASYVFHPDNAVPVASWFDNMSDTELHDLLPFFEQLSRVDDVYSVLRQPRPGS

[5] = target: Tyrosine-protein phosphatase non-receptor type 11 (Homo sapiens, UniProt Q06124); experiment: SHP2 phosphatase inhibition, dose response, selectivity assay for STEP inhibitor project, biochemical (AID 602367); type: functional; conditions: read-out: IC50_Mean
Chain of Tyrosine-protein phosphatase non-receptor type 11 (Q06124 whole entry): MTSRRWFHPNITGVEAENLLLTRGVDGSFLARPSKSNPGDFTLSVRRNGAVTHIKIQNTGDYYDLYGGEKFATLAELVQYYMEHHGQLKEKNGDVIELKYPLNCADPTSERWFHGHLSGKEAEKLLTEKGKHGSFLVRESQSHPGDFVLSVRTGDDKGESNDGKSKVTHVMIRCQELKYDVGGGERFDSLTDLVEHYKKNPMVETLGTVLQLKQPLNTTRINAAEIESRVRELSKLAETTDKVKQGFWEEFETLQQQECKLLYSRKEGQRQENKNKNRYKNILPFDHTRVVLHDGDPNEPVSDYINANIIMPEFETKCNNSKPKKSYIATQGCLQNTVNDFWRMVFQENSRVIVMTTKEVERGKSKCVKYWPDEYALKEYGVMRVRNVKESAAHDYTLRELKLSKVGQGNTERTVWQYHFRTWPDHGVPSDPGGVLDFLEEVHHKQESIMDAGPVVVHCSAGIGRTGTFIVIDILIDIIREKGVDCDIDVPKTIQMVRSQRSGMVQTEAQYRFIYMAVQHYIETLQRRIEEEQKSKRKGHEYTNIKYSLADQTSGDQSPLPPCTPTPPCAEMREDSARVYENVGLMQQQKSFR

[6] = target: Tyrosine-protein phosphatase non-receptor type 5 (Homo sapiens, UniProt P54829); experiment: STEP phosphatase inhibitors, confirmation, biochemical, fluorescence intensity, uHTS hits (AID 602372); type: functional; conditions: read-out: IC50_Mean
Chain of Tyrosine-protein phosphatase non-receptor type 5 (P54829 whole entry): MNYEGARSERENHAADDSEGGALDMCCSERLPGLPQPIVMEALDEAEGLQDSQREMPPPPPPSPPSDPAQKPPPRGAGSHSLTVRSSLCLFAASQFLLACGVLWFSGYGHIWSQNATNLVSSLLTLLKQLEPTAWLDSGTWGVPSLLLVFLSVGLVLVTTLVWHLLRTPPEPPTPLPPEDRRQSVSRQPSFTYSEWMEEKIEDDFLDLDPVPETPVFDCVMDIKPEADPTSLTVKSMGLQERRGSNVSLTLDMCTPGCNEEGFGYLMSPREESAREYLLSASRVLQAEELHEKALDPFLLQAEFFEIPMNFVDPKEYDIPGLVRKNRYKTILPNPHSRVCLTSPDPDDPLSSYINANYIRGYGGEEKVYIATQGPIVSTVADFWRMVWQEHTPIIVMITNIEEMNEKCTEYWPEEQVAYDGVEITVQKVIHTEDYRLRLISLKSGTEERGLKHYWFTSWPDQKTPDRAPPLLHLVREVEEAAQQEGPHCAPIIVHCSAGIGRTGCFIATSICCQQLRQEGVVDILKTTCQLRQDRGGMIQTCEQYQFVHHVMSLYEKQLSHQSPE

[7] = target: Dual specificity protein phosphatase 3 (Homo sapiens, UniProt P51452); experiment: VHR phosphatase inhibition, dose response, selectivity assay for STEP inhibitor project, biochemical (AID 602374); type: functional; conditions: read-out: IC50_Mean
Chain of Dual specificity protein phosphatase 3 (P51452 whole entry): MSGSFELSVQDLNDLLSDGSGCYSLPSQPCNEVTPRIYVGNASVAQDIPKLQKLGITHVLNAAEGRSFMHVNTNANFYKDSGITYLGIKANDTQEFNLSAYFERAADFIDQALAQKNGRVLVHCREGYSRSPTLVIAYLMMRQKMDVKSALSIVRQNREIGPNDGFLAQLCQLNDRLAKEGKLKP

[8] = target: T2, Tyrosine-protein phosphatase non-receptor type 22 (Homo sapiens, UniProt Q9Y2R2); experiment: PTPN22 phosphatase inhibition, dose response, selectivity assay for STEP inhibitor project, biochemical (AID 624241); type: functional
T2 sequence (Q9Y2R2 whole entry): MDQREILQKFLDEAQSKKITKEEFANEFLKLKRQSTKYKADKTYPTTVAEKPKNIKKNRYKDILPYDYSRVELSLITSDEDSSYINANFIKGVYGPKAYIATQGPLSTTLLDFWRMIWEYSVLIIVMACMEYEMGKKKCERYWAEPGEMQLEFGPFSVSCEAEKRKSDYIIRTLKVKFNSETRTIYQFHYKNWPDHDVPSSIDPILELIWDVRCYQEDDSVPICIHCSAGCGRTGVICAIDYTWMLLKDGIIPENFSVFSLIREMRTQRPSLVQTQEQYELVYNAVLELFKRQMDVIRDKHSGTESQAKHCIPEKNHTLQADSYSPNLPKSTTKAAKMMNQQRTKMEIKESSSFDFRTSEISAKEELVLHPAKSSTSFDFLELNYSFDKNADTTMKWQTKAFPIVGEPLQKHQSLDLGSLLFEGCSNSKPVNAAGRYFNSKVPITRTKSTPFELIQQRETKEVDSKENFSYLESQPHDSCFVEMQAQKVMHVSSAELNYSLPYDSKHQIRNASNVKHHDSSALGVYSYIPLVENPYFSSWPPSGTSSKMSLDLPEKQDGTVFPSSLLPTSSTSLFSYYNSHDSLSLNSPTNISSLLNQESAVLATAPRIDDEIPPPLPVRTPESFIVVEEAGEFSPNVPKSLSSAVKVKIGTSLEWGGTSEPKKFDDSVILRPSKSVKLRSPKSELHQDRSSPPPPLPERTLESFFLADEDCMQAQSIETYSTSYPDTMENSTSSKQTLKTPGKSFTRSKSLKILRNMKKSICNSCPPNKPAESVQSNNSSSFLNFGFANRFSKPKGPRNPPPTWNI

[9] = target: Protein Tat (Human immunodeficiency virus type 1 group M subtype B (isolate HXB2)(HIV-1), UniProt P04608); type: functional;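 note: tat binding to TAR RNA read out by fluorescence polarization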
Chain of Protein Tat (P04608 whole entry): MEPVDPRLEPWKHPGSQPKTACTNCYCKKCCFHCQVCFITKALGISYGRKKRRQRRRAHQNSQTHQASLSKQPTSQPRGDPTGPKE

[10] = NIH-3T3 fibroblast cytotoxicity, dose response, cytotoxicity control, cell-based, fluorescence, Alamar Blue, secondary assay (AID 2327); type: functional;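 note: NIH-3T3 mouse fibroblasts cultured with fluconazole at 8 µg/mL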
[11] = C. albicans growth with fluconazole, confirmation, fluorescence, retest (AID 2467); type: functional, cell-based
[12] = target: T3, Serine/threonine-protein phosphatase (Candida dubliniensis (strain CD36 / CBS 7987 / NCPF 3949 / NRRLY-17841) (Yeast), UniProt B9W6M3); experiment: calcineurin pathway inhibitors in yeast reporter, dose response, S. cerevisiae, CDRE-lacZ, luminescence, secondary (AID 2388); type: functional, cell-based;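 note: yeast reporter cells carrying a calcineurin-responsive lacZ construct stimulated with calcium chloride; luminescent beta-galactosidase reporter signal in whole cells rather than isolated phosphatase activity; potency for inhibition where a drop in reporter signal means calcineurin blockade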
T3 sequence (B9W6M3 whole entry): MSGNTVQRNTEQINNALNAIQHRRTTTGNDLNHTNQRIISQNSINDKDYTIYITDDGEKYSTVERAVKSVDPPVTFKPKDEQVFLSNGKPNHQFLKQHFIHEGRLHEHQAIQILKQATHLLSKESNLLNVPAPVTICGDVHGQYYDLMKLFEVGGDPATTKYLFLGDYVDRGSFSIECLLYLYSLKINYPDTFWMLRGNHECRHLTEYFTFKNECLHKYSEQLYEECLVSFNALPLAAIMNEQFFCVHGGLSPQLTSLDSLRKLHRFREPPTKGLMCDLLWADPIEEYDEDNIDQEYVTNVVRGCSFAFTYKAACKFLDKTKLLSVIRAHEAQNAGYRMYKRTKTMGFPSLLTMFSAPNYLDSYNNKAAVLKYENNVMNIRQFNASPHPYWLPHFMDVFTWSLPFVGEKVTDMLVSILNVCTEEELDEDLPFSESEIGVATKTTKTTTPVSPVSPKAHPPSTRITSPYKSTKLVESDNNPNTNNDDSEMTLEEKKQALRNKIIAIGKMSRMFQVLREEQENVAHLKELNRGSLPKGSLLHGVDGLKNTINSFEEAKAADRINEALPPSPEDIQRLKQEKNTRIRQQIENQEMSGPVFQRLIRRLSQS

[13] = cytotoxicity in HEK-293T cells, dose response, cytotoxicity control for TCR NF-kB inhibitor project, luminescence, T-cell screen hits (AID 489026); type: functional, cell-based;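 note: cells exposed to compound about 14 hours before the viability readout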
[14] = system: INS1; experiment: beta cell apoptosis inhibitors, cytokine rescue, dose response, luminescence, retest (AID 449756); type: functional, cell-based; conditions: Rattus norvegicus, INS1;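 note: cell death triggered by IL-1 beta plus TNF-alpha plus IFN-gamma mixture; protective hits raise ATP signal compared with cytokine alone wells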
[15] = target: ATP-dependent molecular chaperone HSP82 (Candida albicans (strain WO-1) (Yeast), UniProt C4YTQ8); experiment: loss of DOC-induced GRE-beta-galactosidase reporter signal, dose response, Hsp90 inhibitor project, S. cerevisiae, luminescence (AID 2400); type: functional, cell-based;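 note: beta-galactosidase luminescence from glucocorticoid response element reporter as proxy for Hsp90 function; inhibitor potency where signal loss means Hsp90 inhibition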
Chain of ATP-dependent molecular chaperone HSP82 (C4YTQ8 whole entry): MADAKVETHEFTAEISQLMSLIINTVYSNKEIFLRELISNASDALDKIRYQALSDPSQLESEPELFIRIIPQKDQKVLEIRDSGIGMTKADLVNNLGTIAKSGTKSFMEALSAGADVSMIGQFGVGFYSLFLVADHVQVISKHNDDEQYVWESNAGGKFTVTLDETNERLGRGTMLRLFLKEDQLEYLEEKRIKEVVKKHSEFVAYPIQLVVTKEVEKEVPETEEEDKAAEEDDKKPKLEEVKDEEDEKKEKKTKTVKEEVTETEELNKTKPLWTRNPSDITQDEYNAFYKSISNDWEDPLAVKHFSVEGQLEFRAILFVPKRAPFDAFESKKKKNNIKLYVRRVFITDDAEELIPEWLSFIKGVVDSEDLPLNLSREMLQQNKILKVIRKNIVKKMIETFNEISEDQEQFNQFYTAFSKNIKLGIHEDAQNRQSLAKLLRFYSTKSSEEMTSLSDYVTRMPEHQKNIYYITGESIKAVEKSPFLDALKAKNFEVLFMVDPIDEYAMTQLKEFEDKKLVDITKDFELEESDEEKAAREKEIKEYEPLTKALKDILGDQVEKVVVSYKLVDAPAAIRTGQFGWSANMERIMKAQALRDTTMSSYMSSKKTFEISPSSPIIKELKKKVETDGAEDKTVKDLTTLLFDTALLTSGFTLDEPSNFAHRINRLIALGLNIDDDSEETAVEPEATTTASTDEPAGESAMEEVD

[16] = Shn3 3'UTR reporter inhibitors, dose response, cell-based, Clone20 osteoblasts, firefly luciferase, cherry-picked (AID 624132); type: functional;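 note: firefly luciferase luminescence from reporter carrying the Shn3 3'UTR in osteoblasts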
[17] = HepG2 cell cytotoxicity, dose response, cytotoxicity control for Shn3 inhibitor project, CellTiter-Glo, cherry-picked (AID 624134); type: functional, cell-based
[18] = control 3'UTR Renilla luciferase suppression, dose response, counter-screen for Shn3 inhibitor project, cell-based, Clone20-Shn3RL, cherry-picked (AID 624133); type: functional
[19] = target: Galanin receptor type 3 (Homo sapiens, UniProt O60755); experiment: Fluorescence-based cell-based primary high throughput dose response assay to identify antagonists of the Galanin Receptor 3 (GalR3).; type: functional
Chain of Galanin receptor type 3 (O60755 whole entry): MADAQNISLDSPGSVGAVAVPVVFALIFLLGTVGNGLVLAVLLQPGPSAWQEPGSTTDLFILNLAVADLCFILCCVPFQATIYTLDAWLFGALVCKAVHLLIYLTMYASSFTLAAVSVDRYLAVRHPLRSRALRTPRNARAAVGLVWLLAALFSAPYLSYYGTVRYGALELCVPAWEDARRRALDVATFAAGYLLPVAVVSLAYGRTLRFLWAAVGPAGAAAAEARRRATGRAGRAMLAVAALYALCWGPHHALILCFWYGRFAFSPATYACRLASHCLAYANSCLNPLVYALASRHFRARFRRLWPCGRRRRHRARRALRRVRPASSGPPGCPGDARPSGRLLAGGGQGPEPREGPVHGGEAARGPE

[20] = cells; type: functional, cell-based; conditions: HEK-CNG
[21] = target: COUP transcription factor 2 (Homo sapiens, UniProt P24468); experiment: Luminescence-based cell-based high throughput dose response assay to identify inhibitors of COUP-TFII (NR2F2).; type: functional;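 note: HEK293 cells transiently cotransfected with COUP-TFII expression vector and reporter; luciferase reporter luminescence driven by COUP-TFII from the pX2-168 reporter plasmid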
Chain of COUP transcription factor 2 (P24468 whole entry): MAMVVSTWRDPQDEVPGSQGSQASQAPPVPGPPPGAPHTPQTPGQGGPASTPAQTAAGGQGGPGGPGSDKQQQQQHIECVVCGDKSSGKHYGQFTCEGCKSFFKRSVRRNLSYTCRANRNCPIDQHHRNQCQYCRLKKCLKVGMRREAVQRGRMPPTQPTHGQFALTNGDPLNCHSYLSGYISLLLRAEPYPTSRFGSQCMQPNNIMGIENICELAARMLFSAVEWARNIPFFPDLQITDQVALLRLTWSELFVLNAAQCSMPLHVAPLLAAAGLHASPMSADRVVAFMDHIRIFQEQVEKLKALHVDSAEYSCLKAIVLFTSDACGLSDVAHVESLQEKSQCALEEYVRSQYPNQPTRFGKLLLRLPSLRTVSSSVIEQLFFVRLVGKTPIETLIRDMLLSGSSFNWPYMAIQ

[22] = target: T4, Low molecular weight phosphotyrosine protein phosphatase (Homo sapiens, UniProt P24666); experiment: LMPTP phosphatase inhibitors, dose response, biochemical, OMFP substrate, fluorescence intensity, set 2 (AID 743307); type: functional
T4 sequence (P24666 whole entry): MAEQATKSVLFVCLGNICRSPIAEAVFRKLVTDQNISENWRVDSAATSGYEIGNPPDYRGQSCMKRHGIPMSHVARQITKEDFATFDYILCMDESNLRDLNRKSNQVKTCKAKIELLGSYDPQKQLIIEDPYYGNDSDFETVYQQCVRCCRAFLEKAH

[23] = target: T4, Low molecular weight phosphotyrosine protein phosphatase; experiment: LMPTP phosphatase inhibitors, colorimetric pNPP readout, dose response, orthogonal assay, biochemical, absorbance, pNPP substrate, LMPTP-A isoform, set 2 (AID 743308); type: functional
[24] = inhibitors of non-replicating M. tuberculosis, dose response, luciferase, dry powder (AID 651619); type: functional; conditions: Mycobacterium tuberculosis
[25] = inhibitors of non-replicating M. tuberculosis, dose response, luciferase, dry powder (AID 651620); type: functional; conditions: Mycobacterium tuberculosis
[26] = system: BJ; experiment: cytotoxicity toward BJ-TERT fibroblasts, dose response, cell-based, RAS-independent, luminescence (AID 1933); type: functional; conditions: Homo sapiens
[27] = system: BJ; experiment: cells; type: functional, cell-based; conditions: Homo sapiens
[28] = system: BJ; experiment: cytotoxicity toward BJ-TERT-LT-ST fibroblasts, dose response, cell-based, RAS-independent, luminescence (AID 1935); type: functional; conditions: Homo sapiens;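 note: BJ fibroblasts immortalized with TERT plus LT and ST oncogenes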
[29] = cytotoxicity toward DRD oncogenic fibroblasts, dose response, cell-based, non-viral oncogenic, luminescence (AID 1934); type: functional; conditions: Homo sapiens
[30] = target: RNA-editing ligase 1, mitochondrial (Trypanosoma brucei brucei, UniProt P86926); experiment: TbREL1 ligase inhibitors, dose response, biochemical, fluorescence, Trypanosoma brucei (AID 1117295); type: functional
Chain of RNA-editing ligase 1, mitochondrial (P86926 whole entry): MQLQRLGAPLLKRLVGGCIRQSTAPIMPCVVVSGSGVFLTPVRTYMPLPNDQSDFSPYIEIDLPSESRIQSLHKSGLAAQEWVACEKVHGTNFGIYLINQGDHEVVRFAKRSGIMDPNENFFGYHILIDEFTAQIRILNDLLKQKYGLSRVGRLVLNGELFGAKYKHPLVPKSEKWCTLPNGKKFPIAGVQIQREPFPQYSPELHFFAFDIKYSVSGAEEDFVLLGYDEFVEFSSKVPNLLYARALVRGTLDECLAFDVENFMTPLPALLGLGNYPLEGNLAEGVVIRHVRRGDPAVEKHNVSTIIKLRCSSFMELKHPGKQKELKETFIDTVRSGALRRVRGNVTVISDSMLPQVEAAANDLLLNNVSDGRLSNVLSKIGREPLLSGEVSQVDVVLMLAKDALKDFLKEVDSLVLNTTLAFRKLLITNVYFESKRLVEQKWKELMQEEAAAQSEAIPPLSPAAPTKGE

[31] = P. falciparum late gametocyte killing, dose response, luminescence (AID 1117278); type: functional, cell-based;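 note: gametocytes exposed to compound for 24 hours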
[32] = Jurkat T cell cytotoxicity, dose response, cytotoxicity control for P. falciparum gametocyte viability project, luminescence (AID 1117277); type: functional, cell-based;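 note: potency reflects loss of cellular ATP meaning fewer viable cells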

O=C(c1ccccc1F)N1CC(=O)N2[C@H](C1)[C@H](c1ccc(-c3cccnc3)cc1)[C@@H]2CO
AC50 [1]: 19.4 µM (active)

COc1cccc(C2=NOC(C(=O)Nc3cc(OC)c(OC)c(OC)c3)C2)c1 (stereo not drawn)
IC50 [2]: 2.02 µM (active)

Cc1c(C)n(C(=O)CSc2nc3ccccc3[nH]2)c2ccccc12
IC50 [3]: 38.2 µM (active)
IC50 [4]: 3.37 µM (active)
IC50 [5]: 0.603 µM (active)
IC50 [6]: 9.91 µM (active)
IC50 [7]: 1.81 µM (active)
IC50 [8]: 8.33 µM (active)
IC50 [9]: > 100 µM (active)

CC(Nc1ncnc2ccccc12)c1ccccc1 (stereo not drawn)
EC50 [10]: > 160 µM (inactive)
EC50 [11]: 0.404 µM (active)
EC50 [12]: > 180 µM (inactive)
IC50 [13]: > 80 µM (inactive)
AC50 [14]: 1.98 µM (active)
EC50 [15]: > 160 µM (inactive)
AC50 [16]: 0.355 µM (active)
AC50 [17]: 1.21 µM (active)
AC50 [18]: 1.14 µM (active)
IC50 [19]: 0.128 µM (active)
EC50 [20]: > 29.9 µM (inactive)
IC50 [21]: 2.41 µM (active)

c1ccc(-c2cc(NCCN3CCOCC3)c3ccccc3n2)cc1
IC50 [22]: 2.13 µM (active)
IC50 [23]: 3.28 µM (active)

[N-]=[N+]=NCCOCCNC(=O)CCCOc1ccc(C[S+]([O-])c2nnc(-c3ccc(Cl)cc3)o2)nc1 (stereo not drawn)
IC90 [24]: 8 µM (active)
IC90 [25]: 8 µM (active)

CC1(C)CC(N2CCN(C(c3ccccc3)c3ccccc3)CC2)=CC(=[N+]2CCCCC2)C1
EC50 [26]: 2.36 µM (active)
EC50 [27]: 3.77 µM (active)
EC50 [28]: 3.51 µM (inconclusive)
EC50 [29]: 3.82 µM (active)
IC50 [13]: > 80 µM (inactive)
IC50 [30]: > 96.6 µM (inactive)

O=C(Cn1cnc2ccccc2c1=O)Nc1ccc(S(=O)(=O)N2CCOCC2)cc1
IC50 [31]: > 109 µM (inactive)
IC50 [32]: > 83.3 µM (inactive)
